According to article PMC12322260, “Anticancer activity of triterpene glycosides from the sea star Solaster pacificus” (Scientific Reports, 2025):

Legend:
22Rv1 cells = assay: Western blotting of apoptotic markers; type: cell-based, human
Procedure: Fig. 3 Functional kinome profiling of STKs (serine/threonine kinases) in 22Rv1 cells and validation of results. (a) Expression of apoptotic markers. The cells were treated with CuC1 for the indicated time, and the expression of proteins was analyzed by Western blotting. (b, c) Functional kinome profiling. A heatmap displaying log2-transformed phosphorylation levels of 99 analyzed STK substrate peptides (b) and upstream kinase analysis, which predicted kinases affected by CuC1 (c). Values of the normalized kinase statistics represented by bars, where log2 < 0 indicates decreased kinase activity and log2 > 0 denotes increased activity. […] 22Rv1 cells were treated with CuC1 for 2 h and the MAPK expression was analyzed by Western blotting. β-actin was used as a loading control. The band intensity of the protein of interest was quantified using Image Lab software and normalized to the band intensity β-actin (a), or to the band intensity of non-phospho MAPK (d), and is indicated by red numbers. […]
Western blotting was performed as previously described. […] Proteins were transferred on a PVDF membrane and detected using specified primary and secondary antibodies. The protein signals were visualized and detected using the ECL chemiluminescence system (Thermo Scientific, Rockford, IL, USA). […] The signal (band) intensity was quantified using Image Lab v. […]

phospho-ERK1/2 = assay: Western blot analysis of MAP kinases; type: cell-based, human; settings: 22Rv1, 2 h
Procedure: (§1) Fig. 3 Functional kinome profiling of STKs (serine/threonine kinases) in 22Rv1 cells and validation of results. (a) Expression of apoptotic markers. The cells were treated with CuC1 for the indicated time, and the expression of proteins was analyzed by Western blotting. (b, c) Functional kinome profiling. A heatmap displaying log2-transformed phosphorylation levels of 99 analyzed STK substrate peptides (b) and upstream kinase analysis, which predicted kinases affected by CuC1 (c). Values of the normalized kinase statistics represented by bars, where log2 < 0 indicates decreased kinase activity and log2 > 0 denotes increased activity. Statistically significant changes having a specificity score log2 > 1.3 are highlighted by red bars. Number of biological replicates n = 3. (d), Western blot analysis of MAP kinases. 22Rv1 cells were treated with CuC1 for 2 h and the MAPK expression was analyzed by Western blotting. β-actin was used as a loading control. The band intensity of the protein of interest was quantified using Image Lab software and normalized to the band intensity β-actin (a), or to the band intensity of non-phospho MAPK (d), and is indicated by red numbers. Full-size blots are presented in Supplementary Fig. S2.
(§2) Western blotting was performed as previously described. In brief, 22Rv1 cells were seeded in Petri dishes (1 × 10^6 cells/dish in 10 mL/dish of media), incubated overnight, and treated with the drug for a specific time. Cells were harvested by scratching, washed with cold PBS, and lysed with RIPA buffer supplemented with protease and phosphatase inhibitor cocktails. Protein lysates were separated using precast Mini-PROTEAN® TGX Stain-FreeTM gels (Bio-Rad, Hercules, CA, USA) and SDS-PAGE. Proteins were transferred on a PVDF membrane and detected using specified primary and secondary antibodies. The protein signals were visualized and detected using the ECL chemiluminescence system (Thermo Scientific, Rockford, IL, USA). […] The signal (band) intensity was quantified using Image Lab v. […]

phospho-JNK1/2 = assay: Western blot analysis of MAP kinases; type: cell-based, human; settings: 22Rv1, 2 h
Procedure: as §1, §2

phospho-p38 = assay: Western blot analysis of MAP kinases; type: cell-based, human; settings: 22Rv1, 2 h
Procedure: as §1, §2

PC3-DR cells = assay: cells; settings: Homo sapiens, 48 h
Procedure: Viability was evaluated using MTT assay, and IC50s were calculated using GraphPad Prism software. Number of biological replicates n = 3. […] Cells (6 × 10^3 cells/well in 100 μL/well of media) were plated in 96-well plates. The plates were incubated overnight, and the medium was replaced with fresh medium containing drugs at the indicated concentrations. The plates were further incubated for 48 h, unless otherwise stated, the solution of MTT reagent in PBS was added to each well, and cells were incubated for another 2–4 h to form formazan crystals. Then the media was removed and the plates were dried overnight. 50 μL of DMSO was added to each well to dissolve the formazan crystals. The absorbance of each well was measured using an Infinite F200PRO reader (TECAN, Männedorf, Switzerland). The cell viability was estimated as an inhibition concentration (IC50), which was calculated using GraphPad Prism software v.9.1.1 (GraphPad Software, San Diego, CA, USA). IC₅₀ values were determined by fitting the data to a nonlinear regression model (log[inhibitor] versus normalized response—variable slope).

In the case of `CO[C@@H]1[C@@H](O)[C@H](O[C@@H]2[C@@H](O)[C@H](O[C@H]3[C@H](O)[C@@H](O[C@@H]4OC[C@@H](O)[C@H](O)[C@H]4O)[C@H](O[C@H]4[C@H](O[C@H]5CC[C@]6(C)[C@@H]7CCC89C(=O)O[C@@](C)(/C=C\C=C(C)C)[C@H]8[C@@H](OC(C)=O)C[C@@]9(C)C7=CC[C@H]6C5(C)C)OC[C@@H](O)[C@@H]4O)O[C@@H]3C)O[C@H](CO)[C@H]2O)OC[C@H]1O` (stereo partly drawn) [CuC1, cucumarioside C1], the “signs of cell death (apoptotic markers)” value (22Rv1 cells; 22Rv1, 0.5 μM, 2 h) is reported as “did not induce any signs of cell death”, the apoptotic markers (22Rv1 cells; 22Rv1, 24 h of treatment) is reported as “apoptotic markers such as cleaved PARP and caspase-3 were detected” and the “active (phosphorylated) ERK1/2” value (phospho-ERK1/2) is reported as “inhibition of active (phosphorylated) forms”. For the same compound, the “active (phosphorylated) JNK1/2” value (phospho-JNK1/2) was “but not JNK1/2”, the “active (phosphorylated) p38” value (phospho-p38) was “inhibition of active (phosphorylated) forms” and the IC50 (PC3-DR cells) was 5.69 ± 0.33 µM.
